Experimental data published in patent US20250250567A1, “PROTOZOA TRANSCRIPTION FACTOR INHIBITOR” (priority 2022, published 2025).
pKd: −log10 of the molar value.

Key:
[1] = tested on: artemisinin-resistant plasmodium (Pf lek122); assay: malaria treatment in humanized mice infected with artemisinin-resistant plasmodium; format: in vivo; details: i.p. on days 21-25, humanized NOG-SCID mice
From the text: AP2-PIPA1, which was designed in the same manner as in Example 1, was used to verify an inhibitory effect in vivo. Mice wherein red blood cells had been replaced with human red blood cells were infected with an artemisinin-resistant plasmodium and a therapeutic effect was examined in the thus-infected mice. The effect was verified in the case of administration of a PIPA alone and the case of combined administration with artemisinin.
Humanized mice were created by injecting human red blood cells (RBCs) into NOG-SCID mice. One milliliter of 50% HCT, A+ve red blood cells prepared with 0.5% Albumax and 3.1 mM hypoxanthine was injected into the NOG-SCID mice once daily for 3 weeks until 80% of the human red blood cells were established. The humanized mice were then infected with an artemisinin-resistant plasmodium (Pf lek122) by 4×10^7 RBCS infected with synchronized ring-stage parasites, and checked for parasitemia by determining a rate of Giemsa-stain positive RBCs from the infected mice. On days 21, 22, 23, 24, and 25, AP2-PIPA1 (AP2-1), artemisinin, or both were injected i.p. at the indicated dose.

[2] = biological target: dsDNA containing the target sequence TGCATG (SEQ ID NO: 1), AP2-Sc binding sequence; assay: binding affinity of PIPA to dsDNA containing the target sequence; parameters: species or system P. falciparum
Procedure: FIG. 1b is a schematic diagram showing a DNA fragment used in one embodiment of the present disclosure to analyze a binding strength of AP2-PIPA1 to its target sequence;
(§1) Next, a binding affinity of a PIPA to dsDNA containing the target sequence for the AP2-PIPA (FIG. 1b) was verified. As designed, the AP2-PIPA1 was bound to the target sequence with a high binding activity, that is, a Kd value of 4.0 nM (FIG. 1c). Consistent with previous reports of low off-target toxicity of a PIPA, the AP2-PIPA was not toxic in either mouse cell lines (Raw264.7 cells, NIH3T3 cells) or human cell lines (U937 cells, A549 cells) (FIG. 2a and FIG. 2b). These analysis results support safety of a PIPA at least in the dose range in vitro.

[3] = tested on: Raw264.7 cells, NIH3T3 cells; assay: cytotoxicity in mouse cell lines (DNA release, LDH activity in culture supernatant); format: cell-based; details: mouse cell lines Raw264.7, NIH3T3; DNA release and LDH activity in culture supernatant
Procedure: as §1

[4] = tested on: U937 cells, A549 cells; assay: cytotoxicity in human cell lines (DNA release, LDH activity in culture supernatant); format: cell-based; details: DNA release and LDH activity in culture supernatant
Procedure: as §1

[5] = toxicity of a single intraperitoneal administration in mice; format: in vivo
Procedure: Toxicity of a single intraperitoneal administration of AP2-PIPA1 was studied in mice. […] Observation of viability and general conditions, measurement of body weight, a hematology test, a blood chemistry test, and necropsy were performed as toxicity assessment indices. […] However, the value for each individual in these groups falls within a background value (34 to 58 IU/L) and thus the changes are determined to be due to physiological variation.
Furthermore, toxicity of a single intraperitoneal administration of the AP2-PIPA1 was studied in mice. […] Observation of viability and general conditions, measurement of body weight, a hematology test, a blood chemistry test, and necropsy were performed as toxicity assessment indices. […] However, the value for each individual in these groups falls within a background value (34 to 58 IU/L) and thus the changes are determined to be due to physiological variation.

[6] = toxicity of multiple administrations in mice; format: in vivo; details: once daily for 7 days orally or intraperitoneally
Procedure: Mice received various doses of AP2-PIPA1 once daily for 7 days orally or intraperitoneally. On day 8, blood was collected and AST and ALT were measured. Significant difference tests were performed for the 3 mg/kg and 10 mg/kg dose groups relative to the control group for each route of administration.
Furthermore, toxicity of multiple administrations of the AP2-PIPA1 was studied in mice. Mice received various doses of the AP2-PIPA1 once daily for 7 days orally or intraperitoneally. On day 8, blood was collected and AST and ALT were measured (FIG. 5b). Significant difference tests were performed for the 3 mg/kg and 10 mg/kg dose groups relative to the control group for each route of administration.

[7] = tested on: P. falciparum 3D7 laboratory strain; assay: proliferation and life cycle of P. falciparum 3D7 at blood stage in vitro (Giemsa staining, FACS); format: cell-based; details: for life cycle of P. falciparum (microscopic observation, Giemsa staining): 24 and 48 hours after infection; for transition to schizont stage / schizont formation: in vitro culture
Procedure: Then, an effect of the AP2-PIPA on proliferation of a P. falciparum 3D7 laboratory strain at a blood stage in vitro was examined. Human red blood cells were infected with P. falciparum and cultured in the presence or absence of the AP2-PIPA. Microscopic observation with Giemsa staining and quantitative count of parasites and their stages by FACS analysis were performed at 24 and 48 hours after the infection.

[8] = tested on: artemisinin-resistant plasmodium strain, various Plasmodium strains; assay: proliferation of artemisinin-resistant and other Plasmodium strains in human red blood cells in vitro; format: cell-based; details: 72 hours after infection
Procedure: Plasmodia were cultured in red blood cells in the presence of various concentrations of a PIPA and, 72 hours later, parasitemia was assessed;
An effect of the AP2-PIPA on proliferation of an artemisinin-resistant strain in vitro was further examined (FIG. 4). Human red blood cells were infected with various Plasmodium strains and cultured in the presence or absence of the AP2-PIPA at various concentrations. Parasitemia was evaluated at 72 hours after the infection to verify a degree of proliferation of Plasmodium treated with various concentrations of the AP2-PIPA, and an IC50 value for the AP2-PIPA in each Plasmodium strain was calculated from the above results. As a result, the AP2-PIPA1 inhibited proliferation of the artemisinin-resistant plasmodium strain with a lower IC50.

[9] = tested on: Plasmodium berghei strain; assay: mouse infection experiment, parasitemia; format: in vivo; details: intraperitoneal
Procedure: Furthermore, an effect of the AP2-PIPA1 was verified in a mouse infection experiment. Mice were infected with a Plasmodium berghei strain and received the AP2-PIPA1 intraperitoneally at each time point (day 1, day 2, day 3, day 4, day 5, day 6, and day 7) shown in the upper schematic diagram in FIG. 6. Blood was collected at 11 or 13 days after the infection to assess parasitemia. […] Multiple administrations of a high dose, i.e., 30 mg/kg are believed to cause toxicity.

[10] = tested on: Plasmodium spp.; details: known; cited from earlier work
[11] = single intraperitoneal administration 5, 10, 20 mg/kg, observed 7 days
[12] = 3 and 10 mg/kg vs control, blood on day 8
[13] = 30 mg/kg dose group, multiple administrations

C[C@@H]1CC[C@H]2[C@@H](C)C(=O)O[C@@H]3O[C@@]4(C)CC[C@@H]1[C@]32OO4 [artemisinin, reference compound]
therapeutic effect on malaria infection (parasitemia) ([1]; administration alone): an effect of artemisinin could not be observed

CC(=O)Nc1cc(C(=O)Nc2cc(C(=O)NCCC(=O)Nc3cn(C)c(C(=O)Nc4cc(C(=O)NCCCC(=O)Nc5cn(C)c(C(=O)Nc6cc(C(=O)Nc7cc(C(=O)NCCC(=O)Nc8cc(C(=O)NCCC(=O)NCCCN(C)C)n(C)c8)n(C)c7)n(C)c6)n5)n(C)c4)n3)n(C)c2)n(C)c1 [AP2-PIPA1]
pKd [2]: 8.40
toxicity (cytotoxicity) [3]: not toxic
toxicity (cytotoxicity) [4]: not toxic
AST activity ([5]; mouse, in vivo, ip, 10 mg/kg): an upward trend was observed
deaths [5, 11]: No deaths were observed
general conditions, weight change, hematology test, blood chemistry test, autopsy [5, 11]: no changes that were considered to be abnormal were found
minimum lethal dose ([5]; single intraperitoneal administration, mice): greater than 20 mg/kg
toxicity of multiple administrations ([6]; dose range examined): not prominently toxic
ALT [6, 12]: no significant difference
AST [6, 12]: no significant difference
life cycle of P. falciparum (microscopic observation, Giemsa staining) ([7]; human red blood cells): arrested a life cycle of P. falciparum at a trophozoite stage
morphological change (FACS analysis) ([7]; human red blood cells, at both 24 and 48 hours after infection): a morphological change was arrested at the trophozoite stage
transition to schizont stage / schizont formation [7]: specifically inhibits transition to a schizont stage
transition to schizont stage / schizont formation ([7]; listed as AP2-PIPA): strongly inhibit schizont formation
IC50, proliferation (parasitemia) ([8]; artemisinin-resistant plasmodium strain): lower IC50
mouse death [9, 13]: mouse death
parasitemia [9, 13]: suppression of parasitemia
parasitemia ([9]; day 1 to day 7, blood at 11 or 13 days after infection): dose-dependent suppression of parasitemia
therapeutic effect on malaria infection (parasitemia) ([1]; administration alone): a therapeutic effect on malaria infection was confirmed
therapeutic effect on malaria infection (parasitemia) ([1]; combined administration with artemisinin): a therapeutic effect on malaria infection was confirmed

Cc1nccnc1N1CCN(S(=O)(=O)c2ccc(-c3ccc(=O)[nH]n3)s2)CC1 [MBX-4055]
proliferation of Plasmodium spp. [10]: known to inhibit proliferation of Plasmodium spp.

CC(=O)Nc1cc(C(=O)Nc2cc(C(=O)NCCC(=O)Nc3cn(C)c(C(=O)Nc4cc(C(=O)NCCCC(=O)Nc5cn(C)c(C(=O)Nc6cc(C(=O)Nc7cc(C(=O)NCCC(=O)Nc8cc(C(=O)NCCC(=O)NCCCN(C)C)n(C)c8)n(C)c7)n(C)c6)n5)n(C)c4)n3)n(C)c2)n(C)c1 [AP2-PIPA2]
life cycle of P. falciparum (microscopic observation, Giemsa staining) ([7]; human red blood cells): thought to be effective at a higher concentration range than that used in this experiment
inhibitory effects on proliferation (parasitemia) ([8]; any of the Plasmodium strains): no inhibitory effects
